Source: PubChem BioAssay (NCI)
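In this assay, cells in 96-well plates receive the compound at five concentrations for 48 hours. Endpoints are linearly interpolated between the surrounding concentrations. GI50 = concentration required for 50% inhibition of growth. TGI: total growth inhibition.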

Key:
Test in all cases: NCI tumour cell line growth inhibition, 48 h
CCRF-CEM leukemia = test system: CCRF-CEM leukemia
COLO 205 colon = test system: COLO 205 colon
DU-145 prostate = test system: DU-145 prostate
HOP-92 NSCLC = test system: HOP-92 NSCLC
NCI-H522 lung = test system: NCI-H522 lung
OVCAR-4 ovarian = test system: OVCAR-4 ovarian
OVCAR-8 ovarian = test system: OVCAR-8 ovarian
RPMI-8226 leukemia = test system: RPMI-8226 leukemia
UO-31 renal = test system: UO-31 renal
A549 NSCLC = test system: A549 NSCLC

Compound	GI50 (CCRF-CEM leukemia) [µM]	TGI (CCRF-CEM leukemia) [µM]	GI50 (COLO 205 colon) [µM]	TGI (COLO 205 colon) [µM]	GI50 (DU-145 prostate) [µM]	TGI (DU-145 prostate) [µM]	GI50 (HOP-92 NSCLC) [µM]	TGI (HOP-92 NSCLC) [µM]	GI50 (NCI-H522 lung) [µM]	TGI (NCI-H522 lung) [µM]	GI50 (OVCAR-4 ovarian) [µM]	TGI (OVCAR-4 ovarian) [µM]	GI50 (OVCAR-8 ovarian) [µM]	TGI (OVCAR-8 ovarian) [µM]	GI50 (RPMI-8226 leukemia) [µM]	TGI (RPMI-8226 leukemia) [µM]	GI50 (UO-31 renal) [µM]	TGI (UO-31 renal) [µM]	GI50 (A549 NSCLC) [µM]	TGI (A549 NSCLC) [µM]
Cc1ccc(Sc2sc(-c3ccccc3)nc2[P+](c2ccccc2)(c2ccccc2)c2ccccc2)cc1	0.373	2	0.195	0.412	0.379	1.37	0.186	0.563	0.306	1.25	0.305	1.09	0.305	1.67	0.178	0.523	0.24	0.811		
COc1ccc2c(c1)/C(=C/c1cc(OC)c(OC)c(OC)c1)C(=O)N2C	2.21	7.04	1.83	3.68			3.01	> 100	2.24	6.39	4.66	> 77.5	4.21	> 74.8	1.59	4.43	3.91	> 55.7	3.64	> 67.1
N#C/C(=C\c1ccc(C(O)P(=O)(O)O)cc1)C(N)=O (stereo not given)		> 100		> 100				> 100		> 100		> 100		> 100		> 100		> 100		> 100
CC1(C)CC2(C)CC1CC2NC(=O)CCN1CCOCC1 (stereo not given)		> 100		> 100		> 100		> 100		> 100		> 100		> 100				> 100		> 100
N#Cc1ccc2c(c1)C(=O)c1c-2n(CCCN)c(=O)c2cc([N+](=O)[O-])ccc12	0.038	0.442	0.518	2.09	0.11	1.41	1.08	2.46			0.0912	0.257	0.29	3.62	0.099	0.815	0.0605	1.44	0.223	2.18
N#CC1C2CCC3(CC2CCN1C(=O)c1ccccc1)OCCO3 (stereo not given)		> 100		> 100				> 100				> 100		> 100		> 100		> 100		> 100
CC1(O)CCC2(C#N)CCC1C2O (stereo not given)		> 100		> 100						> 100		> 100		> 100		54.6		> 100		> 100
O=C1CS/C(=N\S(=O)(=O)c2ccc(N3N=C4c5ccccc5CC4C3c3ccc(Cl)cc3)cc2)N1c1ccccc1 (stereo not given)	13.7	58.3	1.73	16	33.9	> 100	27	> 100	36.7	> 100			34.6	> 100	26.4	88.7	29.1	> 100	24.2	65.8
CSc1ncnc2c1CCN2			> 100	> 100			75	> 100	> 100				> 100	> 100				> 100	> 100	> 100
CC(C)C(=O)/C=C/c1ccc(Cl)c(Cl)c1		81.7		52.3				34.7		35.1		> 100		45.8		87		27.2		49.2
NC(CC1=CCC=CC1)C(=O)O (stereo not given)		> 100		> 100		> 100		> 100				> 100		> 100		> 100		> 100		> 100
Clc1ccc(Nc2ccnc(NCCCNc3ccnc4cc(Cl)ccc34)n2)cc1					1.86	3.35	1.16	2.85	1.95	3.68			1.82	3.62			1.68	3.31	1.73	3.35
COC(=O)C1C(OCc2ccccc2)C2CCC1(OC)C=C2C (stereo not given)		65		> 100				> 100		> 100		> 100		> 100		> 100		> 100		> 100
COc1cc2c(c(OC)c1OC)-c1ccc(OC)c(=O)cc1[C@@H](N(C)C=O)CC2		> 100		0.0251				0.111		0.0438		> 100		> 100		> 100		> 100		> 100
C1=Nc2ccccc2C=Nc2ccccc2C=Nc2ccccc2C=Nc2ccccc21.[Cl-].[Pt+2]	14.9	67.2	17.3	51.4			19.3	48.7	15.8	34.8			17.5	> 100	5.63	35.6	20.8	45.5	28.7	> 100
O=C(CC1C=CCS1(=O)=O)NCc1ccccc1 (stereo not given)		> 100		> 100		> 100		> 100		> 100		> 100		> 100				> 100		> 100
COc1ccc(-c2c(N)[n+]([O-])c3ccccc3[n+]2[O-])cc1OC				> 100				> 100		> 100		> 100		> 100		> 100		> 100		> 100
Cc1ccc2c(c1)CNc1ccc(C)cc1CN2		> 100		> 100				> 100		> 100		> 100		> 100		> 100		> 100		> 100
COc1cc2c(cn1)[nH]c1ccccc12		> 100		> 100				> 100		> 100		> 100		> 100		> 100		> 100		> 100
